Source: US3956291A, “7-Thioacetamido cephalosporanic acid derivatives” (American Home Products Corporation, priority 1974, dated 1976)
Values after ≈ are worked out from the molar mass of the structure shown.

Legend:
Assay in all cases: agar serial dilution test, minimum inhibitory concentration
Assay type in all cases: cell-based
[1] = system: Staphylococcus aureus; settings: Staphylococcus aureus
From the text: (§1) The compounds of this invention are useful for the treatment of bacterial infections amenable to treatment by cephalosporins. […] In accordance with the results obtained with the antibacterial compounds of this invention, their usefulness is established in the fields of comparative pharmacology and microbiology for the purpose of inhibiting the growth of undesirable bacterial colonies. […]

[2] = system: bacillus subtilis; settings: Bacillus subtilis; BA SU strain 6633
From the text: as §1

[3] = system: bordetella brochiseptica; settings: BO BR strain 4617
From the text: as §1

[4] = system: escherichia coli
From the text: as §1

[5] = system: klebsiella pneumoniae; settings: KL PN strain 10031, read-out: Minimum Inhibitory Concentration
From the text: as §1

[6] = system: neisseria catarrhalis; settings: NE CA strain 8193, read-out: Minimum Inhibitory Concentration
From the text: as §1

[7] = system: proteus vulgaris; settings: PR VU strain 6896, read-out: Minimum Inhibitory Concentration
From the text: as §1

[8] = system: salmonella paratyphi; settings: Salmonella enterica, read-out: Minimum Inhibitory Concentration
From the text: as §1

[9] = system: escherichia intermedia; settings: Citrobacter intermedius; ES IN strain 65-1
From the text: (§2) The compounds of this invention are useful for the treatment of bacterial infections amenable to treatment by cephalosporins. […] In accordance with the results obtained with the antibacterial compounds of this invention, their usefulness is established in the fields of comparative pharmacology and microbiology for the purpose of inhibiting the growth of undesirable bacterial colonies.
(§3) The nmr spectra described in the following examples pertains to the spectra obtained upon exchanging acidic hydrogens with deuterium and are described in ppm (δ). The small amount of water and/or solvent carried into the products is readily removed by gently heating the material under vacuum. […]

[10] = system: herellea species; settings: HE SP strain 9955
From the text: as §2, §3

[11] = system: pseudomones aeruginosa; settings: PS AE strain 10145
From the text: as §2, §3

[12] = system: enterobacter aerogenes; settings: Klebsiella aerogenes; EN AE strain 13048
From the text: as §2, §3

Structure (SMILES)	MIC ([1]; ST AU strain 53-180) [µg/mL]	MIC ([1]; ST AU strain 6538P) [µg/mL]	MIC ([1]; ST AU strain CHP) [µg/mL]	MIC ([1]; ST AU strain Smith) [µg/mL]	MIC [2] [µg/mL]	MIC [3] [µg/mL]	MIC ([4]; ES CO strain 920) [µg/mL]	MIC ([4]; ES CO strain 9637) [µg/mL]	MIC [5] [µg/mL]	MIC [6] [µg/mL]	MIC [7] [µg/mL]	MIC [8] [µg/mL]	MIC [9] [µg/mL]	MIC [10] [µg/mL]	MIC [11] [µg/mL]	MIC [12] [µg/mL]
CC(=O)OCC1=C(C(=O)O)N2C(=O)[C@@H](NC(=O)CSC(=C[N+](=O)[O-])SCC#N)[C@H]2SC1 [Example 6, 7-[2-(1-Cyanomethylthio-2-nitroethenylthio)acetamido]cephalosporanic acid]	3.9 (≈ 7.98 µM)	0.976 (≈ 2 µM)	3.9 (≈ 7.98 µM)	0.976 (≈ 2 µM)	0.122 (≈ 0.25 µM)	125 (≈ 256 µM)	125 (≈ 256 µM)	62.5 (≈ 128 µM)	62.5 (≈ 128 µM)	62.5 (≈ 128 µM)	31.3 (≈ 64.1 µM)	7.81 (≈ 16 µM)	250 (≈ 512 µM)	125 (≈ 256 µM)	250 (≈ 512 µM)	
CC(=O)OCC1=C(C(=O)O)N2C(=O)[C@@H](NC(=O)CSC(=NC#N)SCC#N)[C@H]2SC1 [Example 7, 7-[2-[(cyanoimino) (cyanomethylthio)methylthio]acetamido]cephalosporanic acid]	0.976 (≈ 2.08 µM)	0.488 (≈ 1.04 µM)	195 (≈ 415 µM)	0.488 (≈ 1.04 µM)	0.061 (≈ 0.13 µM)	15.6 (≈ 33.2 µM)		31.3 (≈ 66.7 µM)		31.3 (≈ 66.7 µM)	31.3 (≈ 66.7 µM)		62.5 (≈ 133 µM)	31.3 (≈ 66.7 µM)		7.81 (≈ 16.6 µM)
